These results are taken from a melting point compilation (Tetko et al.).

As usually defined, the melting point is the temperature of the solid-liquid transition.

`O=[N+]([O-])c1ccc(-c2ccc(-c3ccc([N+](=O)[O-])cc3)cc2)cc1` had a melting point of 278 °C. `NC(=S)Nc1ccccc1[N+](=O)[O-]` gave a melting point of 136 to 137 °C.

`Cc1ccc(O)c(C(=O)c2ccccc2)c1` returned a melting point of 83 to 85 °C. As for `O=C(O)c1cc(-c2ccc(-c3cc(C(=O)O)c4ccccc4n3)cc2)nc2ccccc12`, the melting point is above 315 °C. As to `CC1OC1P(=O)(O)O` (centres undefined), the melting point was found to be 94 °C.

Regarding `NC(=S)c1ccc(F)c(Cl)c1`, the melting point was in the range of 129 to 131 °C. As for `COc1ccc(C(=O)c2ccc(OC)c(OC)c2)cc1`, the figure is 79 °C. The compound `CC(=O)OCC(=O)C1(OC(C)=O)CCC2(C)C(CCC3C4CCC(=O)C4(C)CCC32)C1` (centres undefined) came in with a melting point of 141 °C. With `CC(C)(C)[C@H](N)CO`, the melting point was in the range of 30 to 34 °C. As for `COc1cc(C2Nn3c(nnc3-c3ccccc3)S2)ccc1O` (centres undefined), the melting point was found to be 149 °C. The compound `CC1CCCC(C)(C)C1` (centres undefined) had a melting point of -65.7 °C.

`CC(C)(C)c1cc(O)c(O)c(C(C)(C)C)c1`: the melting point was 96 to 99 °C. `O=C(Nc1ccc(Cl)c(Cl)c1)c1cc(Cl)cc(Cl)c1O` had a melting point of 162 °C.

Take `CC(C)(C)c1nnc(NS(=O)(=O)c2ccccc2)s1`: the melting point is 163 °C. Regarding `CCc1[nH]c2ccccc2c1C`, the melting point was in the range of 62 to 65 °C. Consider `CCOC(=O)c1sc(SC)nc1NC(=O)Nc1ccc(Cl)c(Cl)c1`, for which the melting point lay within 158 to 162 °C.

`Fc1ccc(-c2n[nH]c(=S)n2-n2cccc2)cc1`: the melting point worked out at 234 °C. In turn, `CCc1nc(CC)nc(NS(=O)(=O)c2ccc(N)cc2)n1` yielded a melting point of 187 °C. In turn, `CN(C)S(=O)(=O)Oc1ccc(C#N)cc1` gave a melting point of 70 to 73 °C. With `CC(CCC(=O)O)C1CCC2C3C(=O)CC4CCCCC4(C)C3CCC12C` (centres undefined), the melting point was 145 °C.

The compound `Cc1c(COC(=O)C2C(C=C(Cl)C(F)(F)F)C2(C)C)cccc1-c1ccccc1` (centres undefined) came in with a melting point of 79.6 °C. As for `CC(C)(C)OC(=O)C(C)(C)Sc1nnc(N)s1`, the figure is 175 to 176 °C; as for `CC(=O)Oc1cc(C)ccc1C1(C)CC(C)(C)c2ccc(C)cc2O1` (centres undefined), 102 °C. `Cc1cc(Cl)ccc1OCCCC(=O)O` showed a melting point of 100 °C. Compound `c1ccc2c(c1)CC1c3ccccc3CCN1C2` (centres undefined) showed a melting point of 85 °C.

In the case of `Cc1ccccc1C(=O)Cc1ccc(C(N)=O)cc1`, the melting point lay in the range of 187 to 188 °C. The compound `CCOC(=O)C(CC)c1ccc(C)cc1` (centres undefined) gave a melting point of 130 °C. The compound `OC1(c2ccccc2)Cc2ccccc21` (centres undefined) displayed a melting point of 68 °C.

Compound `Cc1cccc(C)c1NC(=O)c1cncc(Cl)n1` displayed a melting point of 122 °C. `CC(C)(O)C#Cc1ccc(C=NO)cc1` gave a melting point of 109 to 112 °C.

Turning to `C=C(C(=O)O)C1CCC2C(=CCC3C(C)(C)C(O)CCC23C)C1` (centres undefined), the melting point came to 218 °C.

For the compound `Cc1ccc2occ(C=O)c(=O)c2c1`, the melting point lay in the range of 169 to 174 °C.

Take `COC(=O)c1ccc(N=C=S)cc1`: the melting point stood at 48 °C. As for `CN(C(=O)C(C(F)(F)F)C(F)(F)F)C1CCCCC1`, the melting point came out at 169 °C. For the compound `N[C@H](c1ccccc1)[C@@H](O)c1ccccc1`, the melting point fell in the range of 142 to 144 °C.

`OCc1ccc(-c2cccs2)cc1`: the melting point was 112 °C. Consider `N#Cc1cccnc1N1CCNCC1`, for which the melting point lay within 76 to 78 °C. `Cc1nc(-c2ccc(C(=O)Cl)cc2)cs1` displayed a melting point of 120 to 122 °C.

The compound `C=C1/C(=N/Nc2cc(Cl)c(Cl)cc2Cl)C(=O)N(C)C(=O)N1C` showed a melting point of 242 °C.

In the case of `Cc1ccc(S(=O)(=O)N[C@@H](c2ccccc2)[C@@H](N)c2ccccc2)cc1`, the melting point lay in the range of 127 to 130 °C. Consider `CCCCOC(=O)C1=C(C)NC(=O)NC1c1ccco1` (centres undefined), for which the melting point came to 170 °C. As for `c1ccc(/N=N/c2ccccc2/N=N/c2ccccc2)cc1`, the figure is 111 °C; as for `CCC(C(=O)C=Cc1ccccc1)C(=O)OC1CC(C)CCC1C(C)C` (centres undefined), 135 °C; as for `CC(COc1ccccc1)N(CCCl)Cc1ccccc1` (centres undefined), 39 °C. The compound `CC(C)NC(=O)C(Br)C(C)(C)C` (centres undefined) yielded a melting point of 128 to 130 °C. `c1ccc(-c2ccncn2)cc1` yielded a melting point of 56 °C. The compound `CCOC(=O)c1cc(Cl)c(O)c(Cl)c1` came in with a melting point of 111 °C. `CC1CC(=Cc2ccccc2)C(=O)C(=Cc2ccccc2)C1` (centres undefined) displayed a melting point of 100 to 101 °C. As for `COc1cc(C=NNC(=O)CCn2c(C)nc3ccccc32)ccc1O`, the figure is 230 °C; as for `COc1ccc(CCC(=O)O)cc1`, 104 °C; as for `O=S(=O)(c1ccccc1)c1cccs1`, 123 °C. As for `COc1ccc2cc(C(C)O)ccc2c1` (racemic), the figure is 111 to 114 °C; as for `C#CC`, -103 °C; as for `Cc1cc(C(=O)O)c(C(F)(F)F)o1`, 124 to 126 °C. As for `NC(=S)Nc1cccc(Cl)c1Cl`, the figure is 160 to 162 °C.

The compound `CC(=O)NC1=NC(=O)C(=Cc2coc3ccc(Cl)cc3c2=O)N1C` displayed a melting point of 276 °C. As for `O=C1OC(c2ccc([N+](=O)[O-])cc2)=NC1=Cc1ccccc1`, the figure is 236 °C; as for `Nc1cccc2cc(O)ccc12`, 191 °C; as for `O=Cc1c[nH]c2c(C(=O)O)cccc12`, 308 to 309 °C. With `CCCCCCCCCCCCCCCCCCN=C=S`, the melting point lay within 29 to 33 °C. In turn, `CC(C)(NC(=O)C(Br)C(C)(C)C)c1ccccc1` (centres undefined) gave a melting point of 180 °C. As for `CC12CCC3c4ccc(OC(=O)N(CCCl)CCCl)cc4CCC3C1CCC2O` (centres undefined), the figure is 104 °C. As for `O=C(O)CN(CCO)CCO`, the melting point was 190 to 192 °C. In turn, `Cc1cc(O)nc(C(C)C)n1` gave a melting point of 173 °C. As for `COc1cc(C=CC(=O)O)cc(OC)c1O`, the figure is 203 to 205 °C; as for `O=C1/C(=C\c2ccc(Cl)cc2)SC(=S)N1CN1CCOCC1`, 149 °C; as for `COC(=O)c1c(C)[nH]c(C)c1C=O`, 160 °C. Regarding `COC(=O)c1c(Cl)cccc1Cl`, the melting point came to 28 °C.

Compound `Cc1c(C(=O)CBr)cnn1-c1ccccc1` yielded a melting point of 94 to 96 °C. As for `Cc1ccc(C(=O)c2ccccc2C(=O)O)cc1[N+](=O)[O-]`, the figure is 205 °C; as for `Cc1cc(C(=O)O)ccc1Cl`, 216 to 218 °C; as for `Cc1cc(OC(=O)N(C)C)nn1C(=O)N(C)C`, 69.5 °C. As to `CCN1CCN(C(=O)NC(C(=O)NC2C(=O)N3C(C(=O)O)=C(CSc4nnnn4C)CSC23)c2ccc(O)cc2)C(=O)C1=O` (centres undefined), the melting point was 169 °C.

For the compound `O=C1C(Cl)C(CCl)CN1c1cccc(C(F)(F)F)c1` (centres undefined), the melting point was 67.7 °C. As for `CC1(C)OC2CC3C4CCC5=CC(=O)C=CC5(C)C4(F)C(O)CC3(C)C2(C(=O)CO)O1` (centres undefined), the melting point worked out at 293 °C.

`Nc1c(CN2CCCCC2)c(=O)oc2ccccc12` came in with a melting point of 190 °C. For `C[Si]1(C)O[Si](C)(C)O[Si](C)(C)O[Si](C)(C)O[Si](C)(C)O1`, the melting point is -38 °C. Compound `COc1cc2c(cc1OCc1ccccc1)C(C)N(C)CC2` (centres undefined) showed a melting point of 82 °C. Compound `CCC1(O)CC2CN(CCc3c([nH]c4ccccc34)C(C(=O)OC)(c3cc4c(cc3OC)N(C)C3C(O)(C(=O)OC)C(OC(C)=O)C5(CC)C=CCN6CCC43C65)C2)C1` (centres undefined) yielded a melting point of 267 °C. As for `O=C(O)C1(C(=O)Nc2ccc(Cl)cc2Cl)CC1`, the figure is 195 °C; as for `O=[N+]([O-])c1ccc(C=Cc2ccc([N+](=O)[O-])cc2S(=O)(=O)Oc2ccccc2)c(S(=O)(=O)Oc2ccccc2)c1`, 192 °C. The compound `c1ccc(Cc2c3ccccc3c(Cc3ccccc3)c3ccccc23)cc1` gave a melting point of 246 °C. On to `Clc1ccc(-c2cc(Cl)c(Cl)c(Cl)c2Cl)cc1`, for which the melting point was 98 °C. As to `O=C(O)c1cccc(-c2ccccc2)c1`, the melting point was found to be 167 °C. As to `Clc1cncc(Cl)c1N1CCNCC1`, the melting point was in the range of 77 to 80 °C.

`CCOC(=O)C(=Cc1cc(C=C(C(=O)OCC)C(=O)OCC)cc([N+](=O)[O-])c1)C(=O)OCC` registered a melting point of 80 °C. As for `Clc1ncnc2ccsc12`, the melting point was in the range of 125 to 126 °C. Compound `c1cc2c(c(NC3=NCCN3)c1)CCCC2` showed a melting point of 142 °C.

On to `O=C(O)C1CCCN(C(=O)OCc2ccccc2)C1` (centres undefined), for which the melting point was 90 to 94 °C.

Regarding `COC1(OC)C2C=CC(C)(O2)C1C(=O)O` (centres undefined), the melting point lay in the range of 176 to 178 °C. As for `C(=NCCN=Cc1ccccc1)c1ccccc1`, the figure is 52 to 54 °C. `Brc1ccc(OCc2ccccc2)cc1` registered a melting point of 62 °C. Compound `COc1cc(I)c(OC)cc1I` displayed a melting point of 171 to 173 °C.

The compound `CC(C)C(CO)CCC(C)(O)C(O)C(C)C` (centres undefined) gave a melting point of 60 °C. In turn, `CC12CCC3C(=CCc4cc(O)ccc43)C1CCC2=O` (centres undefined) showed a melting point of 239 °C. The compound `OCc1ccc(-c2cccs2)nc1` returned a melting point of 124 to 125 °C. `CCCC(=O)Nc1ccccc1` came in with a melting point of 97 °C. Take `O=c1[nH]c(=O)n(C2CC(O)C(CO)O2)cc1I` (centres undefined): the melting point amounted to 263 °C. As for `Cc1nc(Br)ccc1Br`, the figure is 38 °C. `CCOC(=O)c1nc(C(Cl)(Cl)Cl)n(-c2ccc(Cl)cc2Cl)n1` yielded a melting point of 110 °C. As for `NC(=S)c1ccccc1N`, the figure is 120 to 122 °C. Compound `O=C(O)C=CC=Cc1ccc2c(c1)OCO2` displayed a melting point of 215 °C. `C(=C\P(c1ccccc1)c1ccccc1)/P(c1ccccc1)c1ccccc1`: the melting point is 123 to 128 °C. With `CC1=NNC(=O)C1=Cc1c(O)c2cccc(C)c2[nH]c1=O`, the melting point worked out at 242 °C.
